This is an account of results in patent publication US5614192A, “T cell receptor peptides as therapeutics for immune-related disease” (Connective Therapeutics, Inc., priority 1993, dated 1997).

Ends that are not written are not given here.

One experiment concerns EAE. Kind of experiment: Prevention of EAE by immunization with TCR peptide (Example VI). The class given is in vivo, Lewis rats. The text has this: EAE is a well-recognized rat model of the human autoimmune disease, multiple sclerosis. […] In this model, the disease is induced by injecting the subject rat with an encephalitogenic form of myelin basic protein, such as, for example, guinea pig basic protein (GPBP) or a synthetic peptide that corresponds to residues 72-89 of GPBP (GPBP(72-89)). Injection of either of these peptides in complete Freund's adjuvant (CFA) induces encephalitogenic T cell clones that utilize preferentially the rat homologs of mouse TCR Vα2 and Vβ8 genes (Chou, Y. K., et al., J. Neurosci. Res. 22:181-187 (1989); Burns, F. R., et al., J. Exp. Med. 169:27-39 (1989)).
^1 EAE was induced by SC challenge with 50 μg GPBP + 400 μg
^2 Rats were injected SC with either: (1) 100 μg of the TCR peptid
^3 Values represent the mean of the maximum severity of EAE. 0, no

In experiment [1] the test system is LN cells and T cell lines. Kind of experiment: Proliferation of LN cells and lines from rats protected by transfer of TCR Vβ8 peptide-specific T cells (Table 15). The class given is cell-based, rat. Here is the method: ^1 Lymph node (LN) cells were collected 20 days after simultaneous
^2 LN cells were tested directly (NL column).
^3 T cell lines were selected from these LN cells by culture with TCR

The next experiment relates to DTH (ear swelling). Kind of experiment: DTH to Vβ8.2-39-59 and Vβ8-44-54 in Vβ8-44-54/CFA immunized rats (Table 34). The format is in vivo. The settings on record: rats immunized 14 days with Vβ8-44-54/CFA; net. Here is the method: Transfer of DTH and protection: Delayed type hypersensitivity reactions were measured by the ear swelling assay (Offner et al., J. Neuroimmunol. 9: 147 (1984)) 24 and 48 h after injection i.d. of 20 μg antigen.
Values represent mean ± S.D. of net ear swelling in 6 immunized rats.

Setting [2] is: A. TCR Vβ8 peptide-specific T cell transfer.

As to “DMGHGLRLIHYSYDVNSTEKG [TCR Vβ8(39-59), 21-amino acid CDR2 peptide of rat TCR Vβ8]”, in the experiment with EAE (100 μg peptide/CFA SC 30 days before challenge with 50 μg GPBP/CFA), the “EAE Incidence” value is recorded as 0/10. The “protection from EAE” value with EAE (Lewis rats) was “prevented completely the induction of EAE”. Also, in experiment [1] (setting [2]), the “Proliferation, GPBP Selected Line” value is 6 cpm × 10^-3 and the “Proliferation, TCR Peptide Selected Line” value stood at 52 cpm × 10^-3. Moreover, the “Proliferation, LN” value in experiment [1] (A. rats given 3 × 10^7 TCR Vβ8 peptide-specific T cells + GPBP/CFA, LN cells day 20) turned out to be 90 cpm × 10^-3. Also, in experiment [1] (B. Saline + GPBP/CFA), the “Proliferation, GPBP Selected Line” value turned out to be 6 cpm × 10^-3 and the “Proliferation, LN” value was 8 cpm × 10^-3. In addition, in the experiment on DTH (ear swelling), the “Ear Swelling 24 h” value is listed as 36 ± 8 mm/100 and the “Ear Swelling 48 h” value is 41 ± 9 mm/100.
